Assay [1] relates to IL-4 stimulated expression of CD23 in human Ramos B cells (JAK-1 and JAK-3). Nature of the assay: Assay for Ramos B-Cell Line Stimulated with IL-4 (CD23 upregulation, FACS). The class given is cell-based. To be noted: Ramos B cells stimulated with IL-4, CD23 expression by FACS, read-out: IC50, Example 41. The gist of the method: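 Human Ramos B cells (5×10^4 per point, RPMI 5% serum) pre-incubated 1 h at 37 °C with compound or DMSO, then stimulated with IL-4 at 50 units/mL final for 20-24 h. CD23 upregulation measured by anti-CD23-PE staining and flow cytometry; IC50 derived.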

For assay [2], the system named is up-regulation of ICAM-1 (CD54) by IFNγ in U937 human monocytic cells. The assay can be described thus: U937 IFNγ ICAM1 FACS Assay. It counts as cell-based. To be noted: ICAM-1 expression by FACS, read-out: IC50, Example 44. In short, it runs like this:
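U937 cells in 10% FCS RPMI were preincubated 30 min at 37 °C with an 8-point, 3-fold compound dilution series in duplicate, then stimulated with IFNγ for 18–24 h. Surface ICAM-1 was stained with APC anti-ICAM-1 and read by flow cytometry as geometric mean on live-gated cells. EC50 was derived.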
In general terms: Flow cytometry measures light scatter and fluorescence of single cells or particles in a stream.

Where [3] appears, read: U937 cells stimulated with IFNγ.

Data on eight molecules can be found in patent US11827628B2, “Compositions and methods for inhibition of the JAK pathway” (Rigel Pharmaceuticals, Inc., priority 2005, dated 2023).

A word on the IC50: it is the concentration that gives 50% inhibition.

Structures can show the parent of a compound that is named as a salt. Where two headings read alike, the source gives them in different places.

Regarding `COc1ccc(Nc2ncc(F)c(Nc3ccc(CN4CCSCC4)cc3)n2)cc1S(N)(=O)=O` [III-109, N2-(3-Aminosulfonyl-4-methyoxyphenyl)-5-fluoro-N4-(4-thiomorpholinomethylenephenyl)-2,4-pyrimidinediamine], the half-inhibitory concentration (IC50) in assay [1] worked out at 143 nM; in assay [2] (setting [3]) it was 531 nM.

As to `NS(=O)(=O)c1cccc(Nc2ncc(F)c(Nc3ccc(CN4CCS(=O)(=O)CC4)cc3)n2)c1` [III-110, N2-(3-Aminosulfonylphenyl)-5-fluoro-N4-{4-[(1,1-dioxothiomorpholin-4-yl-)methyl]phenyl}-2,4-pyrimidinediamine], the 50% inhibitory concentration (IC50) was 247 nM in assay [1] and 13600 nM in assay [2] (setting [3]).

In the case of `Cc1ccc(Nc2ncc(F)c(Nc3ccc(CN4CCS(=O)(=O)CC4)cc3)n2)cc1S(N)(=O)=O` [III-111, N2-(3-Aminosulfonyl-4-methylphenyl)-5-fluoro-N4-{4-[(1,1-dioxothiomorpholin-4-yl-)methyl]phenyl}-2,4-pyrimidinediamine], the results for the IC50 in assay [1] and in assay [2] (setting [3]) were 321 nM and 5340 nM, respectively.

For the molecule `NS(=O)(=O)c1cccc(Nc2ncc(F)c(Nc3ccc(Cc4ccncc4)cc3)n2)c1` [III-129, N2-(3-Aminosulfonylphenyl)-5-fluoro-N4-[4-(4-pyridylmethyl)phenyl]-2,4-pyrimidinediamine Methanesulfonic Acid Salt], the concentration for half-maximal inhibition (IC50) is 174 nM in assay [1] and 1190 nM in assay [2] (setting [3]).

Turning to `CNS(=O)(=O)c1cc(Nc2ncc(F)c(Nc3cccc(-c4cnco4)c3)n2)ccc1C` [IV-4, 5-Fluoro-N2-[3-(N-methylaminosulfony)-4-methylphenyl]-N4-[3-(1,3-oxazol-5-yl)phenyl]-2,4-pyrimidinediamine], the results for the concentration for half-maximal inhibition (IC50) in assay [1] and in assay [2] (setting [3]) were 151 nM and 2420 nM, respectively.

Regarding `CNS(=O)(=O)c1cc(Nc2ncc(F)c(Nc3ccc(-c4cnco4)cc3)n2)ccc1C` [IV-7, 5-Fluoro-N2-[3-(N-methylaminosulfony)-4-methylphenyl]-N4-[4-(1,3-oxazol-5-yl)phenyl]-2,4-pyrimidinediamine], the values for the concentration for half-maximal inhibition (IC50) in assay [1] and in assay [2] (setting [3]) were 112 nM and 1240 nM, respectively.

Regarding `Cc1cc(Nc2nc(Nc3ccc(S(N)(=O)=O)cc3)ncc2F)cc(C)c1N1CCN(C)CC1` [IX-44, N2-(4-Aminosulfonylphenyl)-N4-[3,5-dimethyl-4-(4-methylpiperazin-1-yl]phenyl)-5-fluoro-2,4-pyrimidinediamine], the IC50 amounted to 223 nM in assay [1] (Homo sapiens, Ramos) and 2940 nM in assay [2] (Homo sapiens, U-937, U937 cells stimulated with IFNγ).

`COc1ccc(Nc2nc(Nc3cccc(S(=O)(=O)NN4CCC(C)CC4)c3)ncc2F)cc1Cl` [VI-9, N4-(3-Chloro-4-methoxyphenyl)-5-fluoro-N2-[3-(4-methylpipendin-1-yl)aminosulfonylphenyl]-2,4-pyrimidinediamine]: the figures for the IC50 in assay [1] and in assay [2] (setting [3]) were 53.3 nM and 14500 nM, respectively.
